The values below come from ChEMBL document CHEMBL1926662, “Trace amine-associated receptor 1 is a stereoselective binding site for compounds in the amphetamine class” (Bioorg Med Chem, 2011).

Broadly, the EC50 is the concentration at which the effect is half-maximal.

Experiment [1] addresses T1, Trace amine-associated receptor 1 (Macaca mulatta, UniProt Q8HZ64).
T1 sequence (Q8HZ64 whole entry): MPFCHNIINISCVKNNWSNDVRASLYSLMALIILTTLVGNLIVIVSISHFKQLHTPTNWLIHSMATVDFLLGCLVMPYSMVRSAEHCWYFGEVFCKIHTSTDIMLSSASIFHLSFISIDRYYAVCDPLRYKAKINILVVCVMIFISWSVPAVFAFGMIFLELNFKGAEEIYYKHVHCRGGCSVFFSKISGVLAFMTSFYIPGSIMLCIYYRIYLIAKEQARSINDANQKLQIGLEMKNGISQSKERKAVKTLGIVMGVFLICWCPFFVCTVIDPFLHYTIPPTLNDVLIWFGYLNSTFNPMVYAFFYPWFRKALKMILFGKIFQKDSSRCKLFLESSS
Description: Activation of rhesus monkey TAAR1 expressed in RD-HGA16 cells co-expressing Gq protein assessed as cAMP accumulation by fluorescence plate reader. The experiment is classed as functional, cell-based.

In experiment [2] the target is T2, Trace amine-associated receptor 1 (Homo sapiens, UniProt Q96RJ0).
T2 sequence (Q96RJ0 whole entry): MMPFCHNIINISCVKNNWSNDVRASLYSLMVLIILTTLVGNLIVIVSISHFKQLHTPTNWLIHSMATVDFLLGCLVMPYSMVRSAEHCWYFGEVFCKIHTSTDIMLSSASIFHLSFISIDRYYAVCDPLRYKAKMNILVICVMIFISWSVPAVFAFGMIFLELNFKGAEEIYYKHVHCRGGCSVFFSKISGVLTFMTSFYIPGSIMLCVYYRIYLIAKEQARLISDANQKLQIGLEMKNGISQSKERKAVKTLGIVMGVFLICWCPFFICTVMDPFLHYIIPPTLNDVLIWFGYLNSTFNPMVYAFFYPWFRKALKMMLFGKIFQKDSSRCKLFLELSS
Description: Activation of C-terminal HA epitope tagged human TAAR1 expressed in RD-HGA16 cells co-expressing Gq protein, Galpha16 by cAMP accumulation assay. The experiment is classed as functional, cell-based. (In general: Changes in cAMP serve as a functional read-out for many G protein-coupled receptors.)

Experiment [3] addresses T2, Trace amine-associated receptor 1. The experiment can be described thus: Activation of human TAAR1 expressed in Syrian hamster AV12-664 cells co-expressing GalphaS protein assessed as accumulation of cAMP after 30 mins using cAMP XS EA/CL as substrate by luminescence method in presence of RX821002 and alprenolol. The experiment is classed as functional, cell-based.
The target in experiment [4] is T3, Trace amine-associated receptor 1 (Rattus norvegicus, UniProt Q923Y9). Description: Activation of rat TAAR1 expressed in HEK293 cells assessed as accumulation of [3H]cAMP after 1 hr by liquid scintillation counting. The experiment is classed as functional, cell-based.
Another experiment is described as follows: cells. As to conditions: HEK293; call rule not given here.
In experiment [5] the target is T4, Trace amine-associated receptor 1 (Mus musculus, UniProt Q923Y8). The experiment can be described thus: Activation of mouse TAAR1 expressed in human HEK293 cells assessed as accumulation of [3H]cAMP after 1 hr by liquid scintillation counting. In kind it is functional, cell-based.
Experiment [6] concerns the target T3, Trace amine-associated receptor 1. Description: Activation of rat TAAR1 expressed in HEK293 cells assessed as accumulation of [3H]cAMP after 1 hr by competitive binding assay. The experiment is classed as functional, cell-based.
In experiment [7] the target is T2, Trace amine-associated receptor 1. The experiment can be described thus: Activation of human TAAR1 expressed in human HEK293T cells assessed as cAMP accumulation after 10 mins by BRET assay. The experiment is classed as functional, cell-based, HEK-293T.
Experiment [8] addresses T4, Trace amine-associated receptor 1. The experiment can be described thus: Activation of mouse TAAR1 expressed in human HEK293 cells assessed as accumulation of cAMP after 15 mins. In kind it is functional, cell-based.

T3 sequence (Q923Y9 whole entry): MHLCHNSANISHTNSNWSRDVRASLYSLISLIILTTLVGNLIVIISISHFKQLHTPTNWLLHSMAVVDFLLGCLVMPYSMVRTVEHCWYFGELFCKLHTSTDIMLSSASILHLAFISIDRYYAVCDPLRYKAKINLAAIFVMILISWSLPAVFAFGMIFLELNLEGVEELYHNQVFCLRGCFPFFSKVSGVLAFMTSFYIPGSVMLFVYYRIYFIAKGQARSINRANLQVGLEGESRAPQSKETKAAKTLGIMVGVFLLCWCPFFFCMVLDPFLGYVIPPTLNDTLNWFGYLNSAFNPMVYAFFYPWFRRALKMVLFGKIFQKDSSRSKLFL
T4 sequence (Q923Y8 whole entry): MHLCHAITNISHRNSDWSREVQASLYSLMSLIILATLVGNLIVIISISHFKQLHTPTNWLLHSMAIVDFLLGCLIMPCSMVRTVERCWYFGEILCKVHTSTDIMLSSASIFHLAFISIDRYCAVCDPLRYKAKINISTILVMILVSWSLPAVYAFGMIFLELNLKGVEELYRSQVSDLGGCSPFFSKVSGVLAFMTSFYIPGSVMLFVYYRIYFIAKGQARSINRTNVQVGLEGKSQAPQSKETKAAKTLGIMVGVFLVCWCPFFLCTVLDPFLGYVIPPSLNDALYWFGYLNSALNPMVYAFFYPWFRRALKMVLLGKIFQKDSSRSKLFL
Description for cells: Activation of chimeric rat-human expressed in human HEK293 cells assessed as accumulation of [3H]cAMP after 1 hr by liquid scintillation counting

Regarding `COc1cc(C[C@H](C)N)c(OC)cc1C`, the concentration giving a half-maximal response (EC50) in experiment [1] (read-out: EC50) is 900 nM; in [2] (rd-hga16) it was “Not Active”.

On to `NCCc1ccc(Oc2ccc(O)cc2)c(I)c1`, for which, in experiment [3], the EC50 stood at 1510 nM.

In the case of `C[C@@H](N)Cc1ccc(O)cc1`, the EC50 is 60 nM in [4]; 424 nM in [1] (read-out: EC50); greater than 8540 nM in “cells”; 3160 nM in experiment [2] (read-out: EC50); 5650 nM in experiment [5].

On to `C[C@H](N)Cc1ccc2c(c1)OCO2`, for which the EC50 came to 1350 nM in experiment [1] (read-out: EC50) and 6570 nM in experiment [2] (read-out: EC50).

On to `C[C@@H](N)Cc1ccc2c(c1)OCO2`, for which the EC50 was 2480 nM in experiment [1] (read-out: EC50) and 11700 nM in [2] (read-out: EC50).

Turning to `COc1cccc(C[C@@H](C)N)c1`, the values for the 50% effective concentration (EC50) entry in experiment [1] (rd-hga16) and in [2] (read-out: EC50) were “Not Active” and 6500 nM, respectively.

Consider `CCc1cc(OC)c(C[C@H](C)N)cc1OC`, for which the EC50 result in experiment [1] (rd-hga16) is reported as “Not Active”.

Regarding `CCc1cc(OC)c(C[C@@H](C)N)cc1OC`, the EC50 result in experiment [1] (rd-hga16) and in experiment [2] (rd-hga16) was “Not Active” each time.

With `CN[C@H](C)Cc1ccccc1`, the EC50 in [4] came out at 1190 nM; in [1] (read-out: EC50), 2500 nM; in “cells”, 9830 nM; in [2] (read-out: EC50) it was 3300 nM; in experiment [5], 2440 nM.

Regarding `CN[C@@H](C)Cc1ccc2c(c1)OCO2`, in [1] (read-out: EC50), the EC50 was 16100 nM.

Take `C[C@@H](N)Cc1cccc(C(F)(F)F)c1`: the EC50 entry in experiment [2] (rd-hga16) is “Not Active”.

Take `COc1cc(C[C@@H](C)N)c(OC)cc1C`: the concentration giving a half-maximal response (EC50) result in experiment [1] (rd-hga16) and in [2] (rd-hga16) was “Not Active” in each case.

As to `CN[C@H](C)Cc1ccc2c(c1)OCO2`, the EC50 in experiment [1] (read-out: EC50) was 7400 nM; in experiment [2] (rd-hga16) it was “Not Active”.

Regarding `COc1cc(C[C@H](C)N)c(OC)cc1Br`, the EC50 in experiment [1] (read-out: EC50) turned out to be 2140 nM; in experiment [2] (read-out: EC50), 15300 nM.

For `COc1cc(C[C@@H](C)N)c(OC)cc1Br`, the EC50 in experiment [1] (read-out: EC50) came to 13900 nM; in experiment [2] (read-out: EC50) it was 31900 nM.

As for `CC(N)Cc1ccc(O)cc1` (racemic) [HYDROXYAMPHETAMINE], the EC50 in [6] is 50 nM.

Take `CNC(C)Cc1ccc2c(c1)OCO2` (racemic) [MIDOMAFETAMINE]: in [6], the EC50 came to 1700 nM.

With `COc1cccc(C[C@H](C)N)c1` [(S)-M-METHOXYAMPHETAMINE], the EC50 in experiment [1] (read-out: EC50) came out at 3300 nM; in experiment [2] (read-out: EC50), 1900 nM.

As for `C[C@H](N)Cc1ccc(O)cc1` [(S)-P-HYDROXYAMPHETAMINE], the EC50 is 190 nM in experiment [4]; 101 nM in experiment [1] (read-out: EC50); greater than 5420 nM in “cells”; 2960 nM in experiment [2] (read-out: EC50); 280 nM in experiment [5].

As to `CN[C@@H](C)Cc1ccccc1` [METHAMPHETAMINE], the EC50 in experiment [4] worked out at 890 nM; in experiment [1] (read-out: EC50), 5300 nM; in experiment [7] it was 1300 nM; in experiment [8] it was 70 nM; in the experiment “cells” it was 4440 nM; in [2] (read-out: EC50), 1500 nM. Besides, the EC50 in experiment [5] is 920 nM.

For `NCCc1ccccc1` [PHENETHYLAMINE], the EC50 in experiment [3] is 106 nM.
